The record followed here is patent US8604225B2, “Method of producing hydroxymethyl-furfural” (Novozymes, A/S, priority 2010, dated 2013).

For series [1], the target named is T1, immobilized glucose isomerase (Sweetzyme™) (Streptomyces murinus, UniProt P37031). In words: Effect of HMF on the initial activity of Sweetzyme™ (batch bottles). Format: biochemical, S. murinus. Set-up: purchased Novozymes A/S. To be noted: for initial activity: 60° C. Here is the method: 2.5 gram immobilized glucose isomerase (Sweetzyme™) was loaded to a 250 mL square shaped bottles with screw cap. The bottles were placed in an orbital shaker and heated to 60° C.
T1 sequence (P37031 whole entry): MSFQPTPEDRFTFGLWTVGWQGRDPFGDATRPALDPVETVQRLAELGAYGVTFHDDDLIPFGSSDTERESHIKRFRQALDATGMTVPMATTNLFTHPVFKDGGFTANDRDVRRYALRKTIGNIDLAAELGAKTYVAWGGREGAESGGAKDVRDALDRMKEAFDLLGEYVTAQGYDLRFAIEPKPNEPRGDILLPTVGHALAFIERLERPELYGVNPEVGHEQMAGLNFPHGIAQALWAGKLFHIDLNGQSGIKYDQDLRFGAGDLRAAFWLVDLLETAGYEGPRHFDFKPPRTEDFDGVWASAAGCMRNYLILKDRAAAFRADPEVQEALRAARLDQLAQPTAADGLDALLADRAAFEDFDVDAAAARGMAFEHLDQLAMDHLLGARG
The following conditions were applied for 4 bottles. The term conversion is defined as the fructose/glucose ratio.
Conversion vs. time is presented in FIG. 10 and the initial activity is calculated to be 389.
Conversion vs. time is presented in FIG. 11 and the initial activity is calculated to be 378.
Conversion vs. time is presented in FIG. 12 and the initial activity is calculated to be 364.

Series [2] concerns the target T1, immobilized glucose isomerase (Sweetzyme™). In words: Glucose isomerase performance with substrate containing HMF. Format: biochemical, S. murinus. Set-up: purchased Novozymes A/S. To be noted: for Activity: Syrup with 0.1 w/w % HMF. Here is the method:
To the substrate was added hydroxymethylfurfural (HMF) to a final concentration of 0.1 w/w % HMF.

Series [3] in a line: HMF distribution between organic extraction solvent and aqueous phase. To be noted: B(OH)3 and NaCl, organic:aqueous 4:1, 150° C. In kind it is physicochemical. The method, then:
An aqueous solution containing 30 wt % fructose (3 mL, 5.7 mmol) was mounted in an Ace vial pressure tube (stable to ˜20 Bar) and solid B(OH)3 (0.3 g, 5 mmol) and NaCl (0.15 g, 3 mmol) were added to the solution. Different organic extraction solvent were added resulting in a organic:aqueous volume ratio of 4:1. The tube with the reaction mixture was placed in a preheated oil bath for a specified time under magnetic stirring (420 rpm) at a 150° C. (reaction times were measured after a stable oil bath temperature had been reached). After the reaction, the tube was removed from the oil bath and cooled to room temperature before a sample was taken for analysis. A sample of the reaction mixture was collected and filtered through a syringe filter (0.45 μm PTFE), mixed with an internal standard (i-PrOH) and analyzed via HPLC.
The R value indicated in table 10 is the HMF distribution obtained between the MIBK phase and the aqueous phase, i.e. [HMF]MIBK/[HMF]aq.

As to `O=Cc1ccc(CO)o1` [HMF, 5-(hydroxymethyl)-2-furaldehyde], the initial activity stood at 389 in series [1] (Bottle 2: 0.01 w/w % HMF in 45% glucose syrup), 378 in series [1] (Bottle 3: 0.1 w/w % HMF in 45% glucose syrup) and 364 in series [1] (Bottle 4: 1 w/w % HMF in 45% glucose syrup). For the same compound, the “Sweetzyme™ activity as a function of HMF concentration” value in series [1] (FIG. 13, 0.01-1 w/w % HMF) is recorded as “not seriously affected”. In addition, the Activity in series [2] (time 94.25 h) was 360.39 IGIU/g; in series [2] (time 116.25 h), 267.97 IGIU/g; in series [2] (time 139.50 h), 368.20 IGIU/g; in series [2] (time 162.75 h), 359.92 IGIU/g; in series [2] (time 237.25 h), 367.23 IGIU/g; in series [2] (time 259.17 h), 353.51 IGIU/g. The values for the Activity in series [2] (time 283.67 h) and in series [2] (time 311.08 h) were 363.92 IGIU/g and 358.90 IGIU/g, respectively. The “decay rate compared to a column with normal syrup” value in series [2] (after 9 days with substrate containing 0.1 w/w % HMF) is given as “not affected”.

Consider `C1CCOC1` [THF, tetrahydrofuran], for which the R-value in series [3] (30 wt % fructose, time not given) is reported as 3.2; in series [3] (60 min), 3.7; in series [3] (75 min), 3.6.
